# Test results reported in patent US12115147B2, “Formulations and methods related to eye irritation” (Lebrun Labs LLC, priority 2020, dated 2024).
# Like-named read-outs stand apart in the source and are kept apart here.
# Key:
# [1] = OS2 (OPTISAFE2), OPTISAFE formulation with antioxidants; conditions: for OS2 Cons: majority prediction of the triplicate assays; for 0S2 R1 / OS2 R1: repeat 1, with antioxidants; for 0S2 R1 / OS2 R3 / OS2 R1: predicted GHS class; for OS2 R3: repeat 3, with antioxidants
# [2] = no antioxidants, predicted GHS class, cited from earlier work
# [3] = test system: rabbit eye; conditions: cited from earlier work
# [4] = pH 6.36
# [5] = Table 7A, consensus of past transferability study
# [6] = Table 7A, based on the Draize data
# [7] = Table 7B, consensus of past application domain study
# [8] = Table 7B, based on the Draize data
Compound,"OS Cons [2, 7]","In vivo GHS [3, 8]",OS2 Cons [4],OS2 R3 [4],OS2 R1 [4],further results
"O=C=Nc1ccc(Cl)c(Cl)c1 [3,4-Dichlorophenyl isocyanate]",–,–,–,–,–,"OS2 Cons ([1]; Table 7A): 1; 0S2 R1 ([1]; Table 7A): 1; OS2 R3 ([1]; Table 7A): 1; OS Cons [2, 5]: 1; In vivo GHS [3, 6]: 1 (1 (no reversal by 21 days))"
O=C1CCCO1 [gamma-Butyrolactone],2,2A (2A (reversal by 7 days)),–,–,–,OS2 Cons ([1]; Table 7B): 2; OS2 R1 ([1]; Table 7B): 2; OS2 R3 ([1]; Table 7B): 2
CC(C)CO [Isobutanol],–,–,1,1,–,"0S2 R1 [4]: 1; OS Cons [2, 5]: 1; In vivo GHS [3, 6]: 2A (2A (reversal by 7 days))"
Diethylaminopropionitrile,CNM,1 (1 (no reversal by 21 days)),–,–,–,OS2 Cons ([1]; Table 7B): 1; OS2 R1 ([1]; Table 7B): 2; OS2 R3 ([1]; Table 7B): 1
CCCCCCO [n-Hexanol],2,2A (2A (reversal by 7 days)),2,1,2,–
Cc1ccc(C=S)cc1 [p-Methyl thiobenzaldehyde],1,–,1,1,1,–
CCCCCCCCOCCCCCCCC [Dioctyl ether],–,–,–,–,–,"known ocular irritancy (FIG. 4 legend) ([3]; rabbit, in vivo): Nonirritants"
CC(O)C(=O)O (centres unmarked) [Lactic Acid],–,–,–,–,–,"In vivo GHS ([3]; rabbit, in vivo): 1 (key: NC (not classified as an irritant); 2A (reversal by 7 days); 2B (reversal by 14 days); 1 (no reversal by 21 days))"
OC1CCCC1 [Cyclopentanol],1,2A (2A (reversal by 7 days)),1,1,1,–
N#CCCCl [3-Chloropropionitrile],–,2B (2B (reversal by 14 days)),–,–,–,–
COC(C)=O [Methyl acetate],2,2A (2A (reversal by 7 days)),2,2,2,"known ocular irritancy (FIG. 4 legend) ([3]; rabbit, in vivo): Irritants"
CCCC(C)CO (centres unmarked) [2-Methyl-1-pentanol],–,–,2,2,–,"0S2 R1 [4]: 2; In vivo GHS [3, 6]: 2B (2B (reversal by 14 days))"
CCCCCCCCCCCC(=O)O [Lauric acid],1,1 (1 (no reversal by 21 days)),1,1,1,–
CC(C=O)Cc1ccc(C(C)(C)C)cc1 (centres unmarked) [Protectol PP],–,–,–,–,–,OS2 Cons ([1]; Table 7B): 1; OS2 R1 ([1]; Table 7B): 1; OS2 R3 ([1]; Table 7B): 1
O=P(O)(OCc1ccccc1)OCc1ccccc1 [Dibenzyl phosphate],–,–,–,–,–,OS2 Cons ([1]; Table 7A): 1; 0S2 R1 ([1]; Table 7A): 1; OS2 R3 ([1]; Table 7A): 1
CCCCCCCCCCCCCC(=O)OC(C)C [Isopropyl myristae],–,–,–,–,–,"known ocular irritancy (FIG. 4 legend) ([3]; rabbit, in vivo): Nonirritants"
OC1CCCCC1 [Cyclohexanol],–,1 (1 (no reversal by 21 days)),–,–,–,"in vivo GHS ([3]; Table 3, eye irritation class): 1 (1 (no reversal by 21 days)); GHS ([3]; Table 4): Cat. 1"
Sodium lauroyl sarcosinate [Sodium lauroyl sarcosinate (10%)],–,–,–,–,–,"OS2 result, expanded surfactant study ([1]; due to assay inhibition): CNM"
CC(=O)CC(=O)OC(C)C [Isopropyl acetoacetate],1,2B (2B (reversal by 14 days)),1,1,1,–
"O=C(O)CCSSCCC(=O)O [3,3-Dithiodipropionic acid]",–,–,–,–,–,OS2 Cons ([1]; Table 7A): 1; 0S2 R1 ([1]; Table 7A): 1; OS2 R3 ([1]; Table 7A): 1
